The values below are quoted from earlier work in article PMC9305358 (The Journal of Biological Chemistry, 2022).

Read-outs that look alike come from different tables or passages of the source.

One data set deals with Mtb cells. Conditions: ref [19], [20], [21], [22]; cited from earlier work.
In the next data set the test system is ClpC1. Conditions: cited from earlier work.
For another data set, the system named is ClpC1 NTD. Conditions: crystal structure pdb6PBS, ref [25]; cited from earlier work.

Turning to ecumicin, the “toxicity to Mtb cells” value in the data set on Mtb cells was “highly toxic to Mtb cells”. In the data set with ClpC1 (ref [20], [21]), the “effect on ClpC1 ATPase activity” value is “increase ClpC1 ATPase activity”. Also, in the data set on ClpC1 NTD, the “binding stoichiometry/mode at ClpC1 NTD” value is “two ecumicin peptides bind to the NTD”.

As for lassomycin, in the data set with Mtb cells, the “toxicity to Mtb cells” value is “highly toxic to Mtb cells”. Also, the “effect on ClpC1 ATPase activity” value in the data set with ClpC1 (ref [20], [21]) was “increase ClpC1 ATPase activity”.

Turning to rufomycin, in the data set with Mtb cells, the “toxicity to Mtb cells” value is given as “highly toxic to Mtb cells”. Moreover, the “effect on ClpC1 ATPase activity” value in the data set with ClpC1 (ref [22]) was “shows no impact”.
